Read-outs that look alike come from different tables or passages of the source.

Experimental findings from patent US12162855B2, “Tetrahydroquinolino derivatives for the treatment of metastatic and chemoresistant cancers” (THE TRUSTEES OF PRINCETON UNIVERSITY, priority 2018, dated 2024) are described below.

Experiment [1] has as its target T1, ALDH1a3 (Homo sapiens, UniProt P47895).
T1 construct: lentiviral vectors containing either the vector backbone or full-length human Aldh1a3; expressed in transfected cells; host or cells: SUM159-M1a (A1) and SUM159 (A7) breast cancer cells, lentiviral pLex vector, puromycin selection
T1 sequence (P47895 1-512): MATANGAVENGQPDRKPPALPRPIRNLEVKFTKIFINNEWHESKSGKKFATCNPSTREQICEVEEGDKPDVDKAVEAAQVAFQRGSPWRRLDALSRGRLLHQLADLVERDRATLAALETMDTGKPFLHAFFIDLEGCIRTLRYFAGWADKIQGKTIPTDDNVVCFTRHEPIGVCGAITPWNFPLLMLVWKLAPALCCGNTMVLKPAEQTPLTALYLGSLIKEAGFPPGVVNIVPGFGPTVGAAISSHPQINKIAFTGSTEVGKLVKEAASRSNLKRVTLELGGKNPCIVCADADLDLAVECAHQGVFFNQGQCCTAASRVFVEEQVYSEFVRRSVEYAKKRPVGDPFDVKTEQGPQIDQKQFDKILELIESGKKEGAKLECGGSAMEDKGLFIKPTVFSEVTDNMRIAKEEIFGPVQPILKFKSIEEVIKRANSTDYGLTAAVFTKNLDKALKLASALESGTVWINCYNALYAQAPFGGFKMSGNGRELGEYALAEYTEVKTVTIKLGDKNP
Kind of experiment: ALDEFLUOR assay in MCF7 cells transduced with human Aldh1a3. The class given is cell-based. How it is done:
The coding sequences of Aldh1a1, Aldh1a2, Aldh1a3 and Aldh3a1 were cloned from cDNA made from pooled human reference RNA samples. Cloned sequences flanked by Age1 and Xho1 restriction sites were inserted into the pLex lentiviral plasmid. Clones were sequenced and compared against NCBI expressed sequence tags (ESTs) for accuracy. Viral production of each enzyme was performed by transfection into the 293T packaging cell line using PEI along with PsPax2 and VSVG packaging vectors. Viruses were collected and filtered at 0.45 μm, then cells were transduced using polybrene (8 μg/mL) for 12 hours, followed by culture with 1 μg/mL puromycin for the duration of experiments. All viral transduction and selection was performed on a cell population-wide basis.
(§1) Cells were counted, centrifuged and resuspended at 1,000,000 cells/mL in ALDEFLUOR™ buffer (Stemcell Technologies). ALDEFLUOR™ substrate (Stemcell Technologies, 1:200) and test compound or 1 mM DEAB were added to cell suspension and incubated at 37° C. for 45 minutes with vortexing every 15 minutes. Cells were centrifuged and resuspended in ALDEFLUOR™ buffer with DAPI at 5 μg/mL. Samples were analyzed with the BD LSR2 flow cytometry platform. Gating was performed using DEAB as a negative control.
ALDH isoforms 1a1, 1a2, 1a3 and 3a1 were expressed in MCF7 or SUM159 cells, which were subsequently used in an ALDEFLUOR™ assay.

Experiment [2] addresses T1, ALDH1a3. Kind of experiment: ALDEFLUOR assay in SUM159-M1a-Aldh1a3 cells (flow cytometry). Type of experiment: cell-based. To be noted: for Percent of Cells Positive for ALDEFLUOR at 100 nM / inhibition at 0.1 µM: SUM159-M1a-Aldh1a3 cells, compound at 100 nM; for inhibition at 0.1 µM: read-out: Inhibitory Activity at 100 nM (%); for inhibition of ALDH1a3 activity (FIG. 1A): compounds at 100 nM; for lowest concentration at which inhibitory activity detected ([inh-min], FIG. 1B): threshold at lower bound of two standard deviations of control samples. Here is the method: as §1
Gating for background fluorescence was performed using 1 millimolar DEAB as a negative control.
The [inh-min] threshold was set at the lower bound of two standard deviations of control samples, while the IC50 threshold was set at 50% of the average of control samples.
High activity was gated at the 99th percentile of cells at a MBE1.5 concentration of 10 nanomolar. The [inh-min] threshold was set at the lower bound of two standard deviations of control samples.
An ALDEFLUOR™ assay was also used to assess the relative activity of several compounds described herein against SUM159-M1a-Aldh1a3 cells. The activity of several compounds in the assay at a concentration of 100 nM is reported in Table 1, along with the chemical structure and compound name associated with each compound.
In general terms: In flow cytometry, cells or beads pass a laser one at a time.

On to `CCc1ccccc1C(=O)Nc1cc2c(cc1F)NC(=O)CC2` [MBE1.5, 2-ethyl-N-(7-fluoro-2-oxo-1,2,3,4-tetrahydroquinolin-6-yl)benzamide], for which the “isoform specificity, percentage of ALDEFLUOR-positive MCF7 cells (FIG. 13B)” value at ALDH1a3 [1] (MCF7 cells expressing ALDH 1a1, 1a2, 1a3 or 3a1) is recorded as “specifically inhibits ALDH1a3 at concentrations below 10 μM”. For the same compound, on ALDH1a3 [2], the “Percent of Cells Positive for ALDEFLUOR at 100 nM” value was 0.03%; the inhibition at 0.1 µM was 100%; the “inhibition of ALDH1a3 activity (FIG. 1A)” value was “high-affinity compounds for the inhibition of ALDH1a3 activity”; the “lowest concentration at which inhibitory activity detected ([inh-min], FIG. 1B)” value was 2 nM. For the same compound, at ALDH1a3 [2] (dose titration, IC50 threshold at 50% of average of control samples, read-out: IC50 (percentage of ALDEFLUOR-positive cells, FIG. 1B)), the IC50 (usually the concentration that inhibits the measured activity by half) lay in the range of 8 to 10 nM. The “inhibition of highly ALDH1a3-active cells (high ALDH percentage, FIG. 1C)” value against ALDH1a3 [2] (dose titration, high activity gated at 99th percentile at 10 nanomolar MBE1.5) is “more adept at inhibiting highly ALDH1a3-active cells than MBE1”.

Consider `CCc1cnccc1C(=O)Nc1cc2c(cc1F)NC(=O)CC2` [MBE1, 3-ethyl-N-(7-fluoro-2-oxo-1,2,3,4-tetrahydroquinolin-6-yl)isonicotinamide], for which the “inhibition of Aldh1a3 activity (FIG. 2A)” value against ALDH1a3 [1] (MCF7 cells) is reported as “effective at inhibiting Aldh1a3 activity”. At ALDH1a3 [2], the IC50 was 8 to 10 nM, the “Percent of Cells Positive for ALDEFLUOR at 100 nM” value is on record as 0.73%, the inhibition at 0.1 µM was found to be 99% and the “inhibition of ALDH1a3 activity (FIG. 1A)” value was “high-affinity compounds for the inhibition of ALDH1a3 activity”. The “lowest concentration at which inhibitory activity detected ([inh-min], FIG. 1B)” value at ALDH1a3 [2] came out at 2 nM.
